Reference: ChEMBL document CHEMBL2074213, “In vitro activities of native and designed peptide antibiotics against drug sensitive and resistant tumor cell lines” (Peptides, 2003)
Bridge positions count the residues as written; N and C are the ends. Peptide text beside a SMILES is read from it.

Target: ATP-dependent translocase ABCB1 (Homo sapiens, UniProt P08183)
Assay: TP_TRANSPORTER: drug resistance in MCF-7/Dox cells
Assay type: functional, cell-based

Chain of ATP-dependent translocase ABCB1 (P08183 whole entry): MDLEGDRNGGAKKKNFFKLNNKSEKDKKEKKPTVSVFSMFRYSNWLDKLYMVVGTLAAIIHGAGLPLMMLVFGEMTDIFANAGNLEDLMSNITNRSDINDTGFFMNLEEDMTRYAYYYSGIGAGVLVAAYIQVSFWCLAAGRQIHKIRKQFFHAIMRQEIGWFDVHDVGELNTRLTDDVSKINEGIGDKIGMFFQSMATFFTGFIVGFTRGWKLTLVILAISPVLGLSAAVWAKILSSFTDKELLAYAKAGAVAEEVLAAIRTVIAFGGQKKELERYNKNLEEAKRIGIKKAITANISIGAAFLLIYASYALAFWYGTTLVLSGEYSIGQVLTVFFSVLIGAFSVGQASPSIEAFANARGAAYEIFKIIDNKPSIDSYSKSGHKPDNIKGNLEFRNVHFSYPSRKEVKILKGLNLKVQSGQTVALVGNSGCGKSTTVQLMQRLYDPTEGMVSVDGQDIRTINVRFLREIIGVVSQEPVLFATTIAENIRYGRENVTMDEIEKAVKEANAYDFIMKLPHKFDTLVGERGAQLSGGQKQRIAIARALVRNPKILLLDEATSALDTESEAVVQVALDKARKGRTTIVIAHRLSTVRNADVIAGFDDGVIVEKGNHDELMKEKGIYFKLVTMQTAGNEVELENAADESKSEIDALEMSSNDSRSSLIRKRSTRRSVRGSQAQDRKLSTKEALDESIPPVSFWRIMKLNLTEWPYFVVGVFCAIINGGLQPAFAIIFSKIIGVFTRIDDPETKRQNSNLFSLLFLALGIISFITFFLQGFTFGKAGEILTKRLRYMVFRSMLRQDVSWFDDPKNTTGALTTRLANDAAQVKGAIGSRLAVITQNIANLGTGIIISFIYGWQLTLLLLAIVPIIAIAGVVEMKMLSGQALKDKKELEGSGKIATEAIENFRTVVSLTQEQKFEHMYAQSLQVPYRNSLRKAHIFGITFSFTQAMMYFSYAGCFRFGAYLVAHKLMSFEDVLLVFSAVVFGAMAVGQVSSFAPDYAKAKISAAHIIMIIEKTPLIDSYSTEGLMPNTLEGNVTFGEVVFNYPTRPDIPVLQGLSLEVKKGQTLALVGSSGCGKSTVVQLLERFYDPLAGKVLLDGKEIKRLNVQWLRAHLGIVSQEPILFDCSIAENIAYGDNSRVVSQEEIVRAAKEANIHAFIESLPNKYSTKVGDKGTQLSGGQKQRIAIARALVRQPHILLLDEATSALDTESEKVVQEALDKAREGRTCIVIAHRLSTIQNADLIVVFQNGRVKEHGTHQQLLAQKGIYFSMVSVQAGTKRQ

| Activity | Compound |
| --- | --- |
| substrate [+] | COc1cccc2c1C(=O)c1c(O)c3c(c(O)c1C2=O)C[C@@](O)(C(=O)CO)C[C@@H]3O[C@H]1C[C@H](N)[C@H](O)[C@H](C)O1 [DOXORUBICIN] |
| is not a substrate [-] | CC[C@H](C)[C@@H]1NC(=O)[C@H](CCCCN)NC(=O)[C@@H](NC(=O)[C@@H](NC(=O)[C@@H](NC(=O)[C@@H](NC(=O)[C@@H]2CCCN2C(=O)[C@H](CC(C)C)NC(=O)[C@H](Cc2ccccc2)NC(=O)[C@H](CC(N)=O)NC(=O)[C@H](C)NC(=O)[C@H](C)NC(=O)[C@H](CC(C)C)NC(=O)CNC(=O)[C@H](C)NC(=O)[C@H](CC(C)C)NC(=O)[C@H](CC(C)C)NC(=O)[C@@H]2CCCN2C(=O)[C@H](CC(C)C)NC(=O)[C@@H](N)Cc2ccccc2)[C@@H](C)O)[C@@H](C)CC)[C@@H](C)CC)CSSC[C@@H](C(=O)O)NC(=O)[C@H](CCCCN)NC(=O)[C@H](Cc2ccc(O)cc2)NC(=O)[C@H](CO)NC1=O [GAEGURIN 6] (H-FLPLLAGLAANFLPTIICKISYKC-OH; disulfide 18-24) |
| substrate [+] | CC(=O)O[C@H]1C(=O)[C@@]2(C)[C@H]([C@H](OC(=O)c3ccccc3)[C@]3(O)C[C@H](OC(=O)[C@H](O)[C@@H](NC(=O)c4ccccc4)c4ccccc4)C(C)=C1C3(C)C)[C@]1(OC(C)=O)CO[C@@H]1C[C@@H]2O [PACLITAXEL] |
| is not a substrate [-] | H-FLGALFKALCKLL-OH |
| is not a substrate [-] | H-FLGALFKALSKLL-OH |
